The record followed here is PubChem BioAssay AID1996.

In brackets after ≈: the same amount, converted by molar mass. A value given as a limit tells only on which side of the number the result lay.

For the series the following is noted: buffer; pH 7.4; 200.0 µM.
Usually solubility (kinetic) stands for the concentration staying in solution when a stock, usually in DMSO, is diluted into the medium. The compound `CC1CCCCN1C(=O)COc1ccc2ccc(=O)oc2c1` (stereo not drawn) displayed a solubility (kinetic) of 36.4 µg/mL (≈ 121 µM). `O=C(COC(=O)Cc1ccccc1)Nc1cccnc1Cl`: the kinetic solubility was greater than 45.7 µg/mL. `O=C(CN1CCN(Cc2ccccc2)CC1)Nc1cccc(Cl)c1` came in with a kinetic solubility greater than 51.6 µg/mL. Take `CCC(C)NC(=O)Cc1c(OC)ccc2cc(Br)ccc12` (stereo not drawn): the solubility (kinetic) was less than 0.8 µg/mL. Compound `Cc1cc2ccccn2c1C(=O)Nc1cccc(Cl)c1` yielded a kinetic solubility of less than 0.3 µg/mL. Regarding `COc1ccc(-c2c(C#N)c(N)nc3c2CCC3)cc1`, the kinetic solubility came to 0.3 µg/mL (≈ 1.13 µM). Compound `COc1cccc(CNC(=O)Cn2ccc([N+](=O)[O-])n2)c1` gave a solubility (kinetic) greater than 43.5 µg/mL. The compound `COc1ccccc1CNC(=O)COC(=O)c1ccco1` had a solubility (kinetic) greater than 43.4 µg/mL.

Consider `O=C(/C=C/c1ccco1)N1CCc2ccccc21`, for which the solubility (kinetic) amounted to 31.4 µg/mL (≈ 131 µM). The compound `CC1CCCC(C)N1C(=O)COC(=O)Cc1ccc(F)cc1` (stereo not drawn) came in with a solubility (kinetic) of 30.9 µg/mL (≈ 101 µM). As for `Cc1nc(-c2ccc(S(=O)(=O)NCc3ccccn3)s2)cs1`, the kinetic solubility was greater than 52.7 µg/mL.

In the case of `O=C(O)c1ccc([N+](=O)[O-])c(CS(=O)(=O)c2ccccc2)c1`, the solubility (kinetic) is greater than 48.2 µg/mL.

`Cc1cc(C(c2cc(C)c(N)c(C)c2)c2ccco2)cc(C)c1N`: the solubility (kinetic) was 23.9 µg/mL (≈ 74.6 µM). For the compound `O=C(NC(=S)NCCc1ccccc1)c1ccccc1F`, the solubility (kinetic) turned out to be 0.8 µg/mL (≈ 2.65 µM). `O=C(COC(=O)c1cc(Cl)ccc1[N+](=O)[O-])NC1CC1` yielded a kinetic solubility greater than 44.8 µg/mL. Take `CC(=O)N/C(N)=N/c1nc(=O)c2ccccc2s1`: the kinetic solubility was determined as 3.5 µg/mL (≈ 13.3 µM). The compound `Fc1ccc(-c2cnc3n2CCCCC3)cc1` yielded a kinetic solubility greater than 34.5 µg/mL.

In turn, `CN(C)c1ccc(C2Nc3cccc4cccc(c34)N2)cc1` came in with a kinetic solubility of 6.1 µg/mL (≈ 21.1 µM). `CN(Cc1ccccc1Cl)C(=O)c1cc2ccccc2o1` gave a solubility (kinetic) of 13.7 µg/mL (≈ 45.7 µM). The compound `Cc1cccc(NC(=O)C(C)C(=O)c2ccccc2)c1` (stereo not drawn) showed a solubility (kinetic) of 8.5 µg/mL (≈ 31.8 µM). In the case of `NS(=O)(=O)c1ccc(CCNc2ccc(C(F)(F)F)cn2)cc1`, the solubility (kinetic) turned out to be 48.1 µg/mL (≈ 139 µM). This solubility kinetic lies about 5.7-fold higher than the previous one. In the case of `Cc1ccc(C)c(S(=O)(=O)Nc2cc(C)on2)c1`, the kinetic solubility was greater than 39.9 µg/mL. Then `Cc1cc(C)c(OCC(=O)OCC(=O)NC2CCCCCCC2)c(C)c1`, with 23.5 µg/mL (≈ 65 µM).

The compound `O=C(NN1CCOCC1)c1ccco1` yielded a kinetic solubility greater than 29.4 µg/mL.

Compound `O=C(NC1=NCCS1)c1ccc(C(F)(F)F)cc1` gave a kinetic solubility of 6.1 µg/mL (≈ 22.2 µM).

For `Cc1ccc(COC(=O)NCc2cccnc2)cc1`, the kinetic solubility is 35.7 µg/mL (≈ 139 µM).

Compound `O=S(=O)([O-])CCC[N+]1(CC#Cc2ccccc2)CCCCC1` showed a solubility (kinetic) greater than 48.2 µg/mL.

Regarding `COc1cc(NC(=O)C(=O)N2CCN(C)CC2)c(OC)cc1Cl`, the solubility (kinetic) is greater than 51.3 µg/mL.

Regarding `CCc1ccccc1NC(=O)CCN1C(=O)C2C3CCC(C3)C2C1=O` (stereo not drawn), the solubility (kinetic) was 43 µg/mL (≈ 126 µM). Regarding `COc1ccc(Nc2cc(Nc3ccccc3)ncn2)cc1`, the solubility (kinetic) was less than 0.2 µg/mL. The compound `COc1ccc(C(=O)Nc2ccc(Nc3ccccc3)cc2)cc1OC` returned a kinetic solubility of less than 0.4 µg/mL. Then `Cc1ccccc1C(=O)Nc1ccnc(-c2ccncc2)n1`, with 0.5 µg/mL (≈ 1.72 µM); and `c1cncc(-c2nc3ccccc3s2)c1`, with 22.7 µg/mL (≈ 107 µM).

On to `COc1ccc(S(N)(=O)=O)cc1C(=O)OCC(=O)N1c2ccccc2NC(=O)C1(C)C`, for which the solubility (kinetic) was greater than 67.1 µg/mL. The compound `CC1(C)Oc2ccc3ccc(=O)oc3c2C(/C=N/O)=C1Cl` returned a kinetic solubility of 12.5 µg/mL (≈ 40.9 µM). Then `CC(C)CC(C)NC(=O)c1ccc(C(F)(F)F)cc1` (stereo not drawn), with 4.9 µg/mL (≈ 17.9 µM); and `Cc1cccc(C)c1NC(=O)[C@@]1(CC(=O)O)CC(/C=C/c2ccccc2)=NO1`, with greater than 56.8 µg/mL; and `O=C(COC(=O)/C=C/c1ccccc1[N+](=O)[O-])NCc1ccco1`, with 18.7 µg/mL (≈ 56.6 µM).

`CCOC(=O)c1csc(NC(=O)CN2CCCCC2)n1` yielded a kinetic solubility greater than 44.6 µg/mL. The compound `COc1cccc(C(=O)OCC(=O)N2CCc3ccccc3C2)c1OC` came in with a kinetic solubility of 11.7 µg/mL (≈ 32.9 µM). For `N#Cc1ccccc1NC(=O)Nc1ccccc1`, the solubility (kinetic) was greater than 35.6 µg/mL.

In the case of `COc1ccc(NC(=O)COc2ccccc2)cc1Cl`, the kinetic solubility amounted to 34 µg/mL (≈ 117 µM). `COc1ccc(NC(=O)C2CCN(C(=O)c3ccco3)CC2)c(OC)c1` came in with a kinetic solubility of 44.2 µg/mL (≈ 123 µM). `COc1ccc(-c2cc(C(=O)NC3CC3)c3ccccc3n2)cc1` displayed a kinetic solubility of 1.6 µg/mL (≈ 5.03 µM). `COC(=O)C1CN(C(=O)c2cccc(OC(F)F)c2)c2ccccc2O1` (stereo not drawn) came in with a solubility (kinetic) greater than 54.5 µg/mL. In the case of `CCOC(=O)c1c(C)oc2c1c(C=NCC1CCCO1)c(O)c1ccccc12` (stereo not drawn), the solubility (kinetic) is less than 0.8 µg/mL. For `COc1ccccc1NC(=O)CN1C(=O)COc2ccc(C)cc21` the value was 16.2 µg/mL (≈ 49.6 µM); for `COc1cc2ccccc2cc1C(=O)N1CC(C)CC(C)C1` (stereo not drawn), greater than 44.6 µg/mL; for `On1c(-c2ccccc2Cl)nc2ncccc21`, greater than 36.9 µg/mL. `S=c1[nH]cc(-c2ccccc2)[nH]1` had a kinetic solubility greater than 26.4 µg/mL. `CC(Cc1ccccc1)NC=O` (stereo not drawn) yielded a kinetic solubility of 24.4 µg/mL (≈ 149 µM). For `Cc1ccc2nc(Nc3ncc4c(n3)CC(C)(C)CC4=O)nc(C)c2c1` the value was 10.5 µg/mL (≈ 30.2 µM); for `CC(=O)N1c2ccccc2-c2nc3ccccc3n2C1C` (stereo not drawn), greater than 41.6 µg/mL.
